Assay results taken from ChEMBL document CHEMBL1137255, “HIV-1 protease mutations and inhibitor modifications monitored on a series of complexes. Structural basis for the effect of the A71V mutation on the active site” (J Med Chem, 2006).

Legend:
[1] = biological target: T1, Human immunodeficiency virus type 1 protease (Human immunodeficiency virus 1, UniProt Q72874); assay: Inhibition of wild type HIV1 protease
[2] = biological target: T1, Human immunodeficiency virus type 1 protease; assay: Inhibition of HIV1 protease I8 mutant

SMILES	Ki [1] [nM]	Ki [2] [nM]
CC(C)(C)OC(=O)N[C@@H](Cc1ccccc1)[C@@H](O)CN[C@@H](Cc1ccccc1)C(=O)N[C@@H](CCC(N)=O)C(=O)N[C@@H](Cc1ccccc1)C(N)=O	33	1000
CC(C)(C)OC(=O)N[C@@H](Cc1ccccc1)[C@@H](O)C[C@@H](Cc1ccccc1)C(=O)N[C@@H](CCC(N)=O)C(=O)N[C@@H](Cc1ccccc1)C(N)=O	0.02	0.26
CC(C)(C)OC(=O)N[C@@H](Cc1ccccc1)[C@@H](O)CN[C@@H](Cc1ccccc1)C(=O)N[C@@H](CCC(=O)O)C(=O)N[C@@H](Cc1ccccc1)C(N)=O	0.15	86
